We go through 18 compounds from paper PMC2248166, “Quantitative peptide binding motifs for 19 human and mouse MHC class I molecules derived using positional scanning combinatorial peptide libraries” (Immunome Research, 2008).

In general, IC50 refers to the point on the concentration scale where inhibition reaches its midpoint. Low values mean greater potency in that assay, high ones weaker potency in that assay.

Some targets named below: HLA B*1503 (Homo sapiens, UniProt P01889, A329T/A93T/A95T/C349S/D201E/D98Y/E187L/E204Q/K202T/N87E/Q94N/R155S/R180L/S121R/S35A/V306I/V36M/Y140S/Y91S); HLA A*3001 (Homo sapiens, UniProt P04439, D140H/D185E/E176W/F33S/G80R/H175R/K168Q/R138E/R41S); HLA B*1501 (Homo sapiens, UniProt P01889, A329T/A93T/A95T/C349S/D201E/D98Y/E187L/E204Q/E69M/E70A/K202T/N87E/Q94N/R155S/R180W/S121R/S35A/S48A/V306I/V36M/Y140S/Y91S).

Test in all cases: biochemical
What all share (type): binding

Where a SMILES comes first, the peptide text is derived from it.

Chain of HLA A*3001 (P04439 25-365 limits assumed, stated change not applied): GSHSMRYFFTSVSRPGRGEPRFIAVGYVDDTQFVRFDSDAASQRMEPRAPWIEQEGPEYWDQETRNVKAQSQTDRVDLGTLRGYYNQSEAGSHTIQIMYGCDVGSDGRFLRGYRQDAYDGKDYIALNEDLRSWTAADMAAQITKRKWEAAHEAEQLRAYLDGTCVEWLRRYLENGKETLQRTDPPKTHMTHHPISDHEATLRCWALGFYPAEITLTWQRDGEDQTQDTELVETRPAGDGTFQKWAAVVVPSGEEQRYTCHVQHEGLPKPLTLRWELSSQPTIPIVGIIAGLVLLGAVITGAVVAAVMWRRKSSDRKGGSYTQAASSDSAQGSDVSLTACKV

Take `CC[C@H](C)[C@H](NC(=O)[C@H](Cc1ccc(O)cc1)NC(=O)[C@H](C)NC(=O)[C@H](C)NC(=O)[C@H](Cc1c[nH]cn1)NC(=O)[C@H](CO)NC(=O)[C@@H](N)CCCCN)C(=O)N[C@@H](CC(=O)O)C(=O)N[C@@H](Cc1ccc(O)cc1)C(=O)O` [3102.0209] (H-KSHAAYIDY-OH): the values for the IC50 at HLA B*1503, on HLA A*3001 and on HLA B*1501 were 1.7 nM, 12 nM and 1.8 nM, respectively.

`CC(C)C[C@H](NC(=O)[C@@H](NC(=O)[C@H](CO)NC(=O)[C@H](CCCCN)NC(=O)[C@@H](NC(=O)[C@@H](N)Cc1c[nH]cn1)C(C)C)[C@@H](C)O)C(=O)N[C@@H](CC(N)=O)C(=O)N[C@@H](CC(N)=O)C(=O)N[C@@H](C)C(=O)O` [3102.0217] (H-HVKSTLNNA-OH): the IC50 against HLA A*3001 stood at 1.2 nM; at HLA B*1501, 367 nM.

For the compound `CC[C@H](C)[C@H](NC(=O)[C@H](CO)NC(=O)[C@@H](N)CCCCN)C(=O)N[C@@H](CCC(=O)O)C(=O)N[C@@H](CCC(N)=O)C(=O)N[C@@H](Cc1c[nH]cn1)C(=O)N1CCC[C@H]1C(=O)N[C@H](C(=O)N[C@H](C(=O)O)C(C)C)C(C)C` [3102.0246] (H-KSIEQHPVV-OH), the IC50 came to 2.7 nM against HLA A*3001 and 71 nM against HLA B*1501.

Regarding `CSCC[C@H](NC(=O)[C@H](CO)NC(=O)[C@H](CCSC)NC(=O)[C@@H](N)CCSC)C(=O)N[C@@H](Cc1ccc(O)cc1)C(=O)NCC(=O)N[C@@H](CCCCN)C(=O)N[C@@H](C)C(=O)N[C@@H](Cc1ccccc1)C(=O)O` [3102.1173] (H-MMSMYGKAF-OH), the IC50 on HLA B*1503 was found to be 2.6 nM; against HLA B*1501 it was 3.2 nM.

In the case of `CC(C)C[C@H](NC(=O)[C@H](CC(C)C)NC(=O)[C@@H](NC(=O)[C@H](CO)NC(=O)[C@H](Cc1ccc(O)cc1)NC(=O)[C@H](CC(C)C)NC(=O)[C@@H](N)CCC(N)=O)[C@@H](C)O)C(=O)N[C@@H](CO)C(=O)N[C@@H](Cc1ccccc1)C(=O)O` [3102.1175] (H-QLYSTLLSF-OH), the IC50 on HLA B*1503 came to 0.57 nM; against HLA B*1501, 3 nM.

Take `CSCC[C@H](NC(=O)[C@H](Cc1ccc(O)cc1)NC(=O)[C@H](CCCCN)NC(=O)[C@H](CO)NC(=O)[C@H](Cc1ccccc1)NC(=O)[C@H](C)NC(=O)[C@@H](N)Cc1ccc(O)cc1)C(=O)N[C@@H](CO)C(=O)N[C@@H](Cc1ccccc1)C(=O)O` [3102.1180] (H-YAFSKYMSF-OH): the IC50 at HLA B*1503 amounted to 1.8 nM; at HLA B*1501 it was 9 nM.

As for `C[C@@H](O)[C@H](NC(=O)[C@H](CCCCN)NC(=O)[C@H](Cc1ccc(O)cc1)NC(=O)[C@H](CCC(N)=O)NC(=O)[C@@H](N)CCC(=O)O)C(=O)N[C@@H](CCC(=O)O)C(=O)N[C@@H](CO)C(=O)N[C@@H](Cc1ccccc1)C(=O)N[C@@H](Cc1ccccc1)C(=O)O` [3102.1224] (H-EQYKTESFF-OH), the concentration for half-maximal inhibition (IC50) worked out at 1.8 nM at HLA B*1503 and 6.6 nM at HLA B*1501.

As to `CSCC[C@H](NC(=O)[C@H](Cc1c[nH]cn1)NC(=O)[C@H](CCC(N)=O)NC(=O)CNC(=O)[C@@H]1CCCN1C(=O)[C@@H]1CCCN1C(=O)[C@H](C)NC(=O)[C@H](CO)NC(=O)[C@@H](N)CS)C(=O)O` [3102.1226] (H-CSAPPGQHM-OH), the IC50 against HLA B*1503 came to 24 nM; at HLA B*1501, 53 nM.

Turning to `CC(C)[C@H](NC(=O)[C@H](Cc1ccccc1)NC(=O)CNC(=O)[C@H](Cc1c[nH]cn1)NC(=O)[C@H](CC(N)=O)NC(=O)[C@H](CCC(N)=O)NC(=O)[C@@H](N)Cc1ccc(O)cc1)C(=O)N[C@@H](CO)C(=O)N[C@@H](Cc1ccccc1)C(=O)O` [3102.1231] (H-YQNHGFVSF-OH), the IC50 at HLA B*1503 was 2.4 nM; against HLA B*1501 it was 0.17 nM.

On to `CC(C)C[C@H](NC(=O)[C@@H]1CCCN1C(=O)[C@H](CC(N)=O)NC(=O)[C@H](C)NC(=O)[C@@H](N)Cc1ccccc1)C(=O)N[C@@H](CO)C(=O)N[C@@H](CC(N)=O)C(=O)N1CCC[C@H]1C(=O)N[C@@H](Cc1ccccc1)C(=O)O` [3102.1245] (H-FANPLSNPF-OH), for which the IC50 against HLA B*1503 stood at 1.9 nM; on HLA B*1501 it was 1.7 nM.

For `CC[C@H](C)[C@H](NC(=O)[C@H](CCC(N)=O)NC(=O)[C@@H](N)CO)C(=O)N[C@@H](CCC(=O)O)C(=O)N[C@H](C(=O)NCC(=O)N[C@H](C(=O)N1CCC[C@H]1C(=O)N[C@@H](Cc1ccccc1)C(=O)O)[C@@H](C)O)[C@@H](C)O` [3102.1253] (H-SQIETGTPF-OH), the IC50 on HLA B*1503 worked out at 1.3 nM; against HLA B*1501 it was 0.61 nM.

`CC[C@H](C)[C@H](NC(=O)[C@H](Cc1c[nH]cn1)NC(=O)[C@H](CCCCN)NC(=O)[C@H](CC(N)=O)NC(=O)[C@H](CCSC)NC(=O)[C@@H](N)Cc1ccccc1)C(=O)N[C@@H](CC(C)C)C(=O)N[C@@H](CO)C(=O)N[C@@H](Cc1ccc(O)cc1)C(=O)O` [3102.1258] (H-FMNKHILSY-OH): the IC50 turned out to be 0.74 nM at HLA B*1503 and 1.7 nM against HLA B*1501.

Take `CC(C)C[C@H](NC(=O)[C@H](CO)NC(=O)[C@H](CO)NC(=O)CNC(=O)[C@H](CO)NC(=O)[C@H](CCCCN)NC(=O)[C@H](C)NC(=O)[C@H](CCC(N)=O)NC(=O)[C@@H](N)CC(C)C)C(=O)O` [3102.1276] (H-LQAKSGSSL-OH): the IC50 against HLA B*1503 amounted to 0.33 nM; on HLA B*1501 it was 4.6 nM.

Consider `CC[C@H](C)[C@H](NC(=O)[C@H](CCSC)NC(=O)[C@H](CC(C)C)NC(=O)[C@H](CCSC)NC(=O)[C@@H](N)CCSC)C(=O)NCC(=O)N[C@@H](CC(N)=O)C(=O)N[C@@H](Cc1ccc(O)cc1)C(=O)N[C@@H](Cc1ccccc1)C(=O)O` [3102.1301] (H-MMLMIGNYF-OH), for which the IC50 against HLA B*1503 turned out to be 0.2 nM; against HLA B*1501, 33 nM.

Consider `CC(C)C[C@H](NC(=O)[C@H](C)N)C(=O)N[C@@H](CCCNC(=N)N)C(=O)N1CCC[C@H]1C(=O)N[C@@H](CO)C(=O)N[C@@H](CO)C(=O)N[C@@H](CCC(N)=O)C(=O)N[C@H](C(=O)N[C@@H](Cc1ccccc1)C(=O)O)C(C)C` [3102.1320] (H-ALRPSSQVF-OH), for which the values for the IC50 against HLA B*1503 and against HLA B*1501 were 0.095 nM and 1.5 nM, respectively.

In the case of `CC[C@H](C)[C@H](NC(=O)[C@H](Cc1c[nH]cn1)NC(=O)[C@H](CCC(N)=O)NC(=O)[C@H](CO)NC(=O)[C@H](CCC(=O)O)NC(=O)[C@@H](N)CC(C)C)C(=O)N[C@H](C(=O)N[C@@H](CO)C(=O)N[C@@H](Cc1ccccc1)C(=O)O)[C@@H](C)CC` [3102.1322] (H-LESQHIISF-OH), the IC50 at HLA B*1503 was 28 nM; against HLA B*1501, 57 nM.

Take `CC[C@H](C)[C@H](NC(=O)[C@H](CO)NC(=O)[C@@H](N)Cc1ccccc1)C(=O)N[C@@H](Cc1ccc(O)cc1)C(=O)N[C@@H](CO)C(=O)N[C@H](C(=O)N[C@@H](CO)C(=O)N[C@@H](CS)C(=O)N[C@@H](Cc1ccccc1)C(=O)O)C(C)C` [3102.1330] (H-FSIYSVSCF-OH): the half-inhibitory concentration (IC50) amounted to 7.6 nM at HLA B*1503 and 3.1 nM against HLA B*1501.

Turning to `CC(C)C[C@H](NC(=O)[C@H](CO)NC(=O)[C@@H]1CCCN1C(=O)[C@H](CO)NC(=O)[C@H](Cc1ccccc1)NC(=O)[C@H](CO)NC(=O)[C@@H](N)C(C)C)C(=O)N[C@H](C(=O)N[C@@H](Cc1ccccc1)C(=O)O)[C@@H](C)O` [3102.1333] (H-VSFSPSLTF-OH), the figures for the IC50 against HLA B*1503 and against HLA B*1501 were 1.2 nM and 1.3 nM, respectively.
